The values below come from paper PMC9820345, “Metal Complexes of a 5-Nitro-8-Hydroxyquinoline-Proline Hybrid with Enhanced Water Solubility Targeting Multidrug Resistant Cancer Cells” (International Journal of Molecular Sciences, 2022).

Where two headings read alike, the source gives them in different places.

The subject of one experiment is MES-SA/Dx5. The experiment can be described thus: In vitro cytotoxicity, MES-SA/Dx5 cells (fluorescent protein readout). Format: cell-based, human. The settings on record: for IC50: 144 h exposure; for Selectivity ratio IC50 (MES-SA)/IC50 (MES-SA/Dx5): calculated from IC50 values in Table 4. An excerpt: (§1) Cell lines: all cell culture reagents were obtained from Sigma-Aldrich; plasticware was purchased from Sarstedt (Nümbrecht, Germany); Human colon Colo205 (chemo-sensitive, ATCC-CCL-222) and Colo320 (Pgp/MDR1-expressing, doxorubicin-resistant, ATCC-CCL-220.1) adenocarcinoma cell lines were purchased from LGC Promochem, Teddington, UK; MES-SA and MES-SA/Dx5 uterine sarcoma cell lines were obtained from ATCC, where they were characterized by DNA fingerprinting. The expression of the Pgp efflux pump of MES-SA/Dx5 was proven by Western blot analysis in our former report, and was also reported for the Colo320 cells. The MES-SA and MES-SA/Dx5 cells used in this study were previously engineered to express the fluorescent proteins mCherry and eGFP, respectively, by lentiviral transduction.
(§2) MES-SA cell lines were maintained in DMEM, supplemented with 10% fetal bovine serum, 5 mmol/L glutamine, and 50 units/mL penicillin and streptomycin. Cells were tested and resulted negative for mycoplasma contamination with the MycoAlert mycoplasma detection Kit (Lonza Group, Basel, Switzerland). One week prior to the cytotoxicity assays, Dx5 eGFP cells were selected in 500 nM doxorubicin for one passage to ensure the overexpression of P-glycoprotein.
(§3) Cytotoxicity assays: The tested compounds were dissolved in PBS buffer to prepare 5 mM stock solutions, which were diluted in complete culture medium.
(§4) In the case of the MES-SA and MES-SA/Dx5 cells, cell suspensions of the fluorescent cell lines were pre-mixed in a 1:1 ratio and seeded in 20 µL medium in a density of 2500 cells/well (1250 cells/well each) in a 384-well plate. After an overnight incubation, a serial dilution of the compounds was added to the plate in a final volume of 60 µL. The P-gp inhibitor tariquidar was added to the cells 15 min prior to the test compounds. After 144 h of incubation, plates were measured for the fluorescent intensity of mCherry (EX/EM: 585 nm/610 nm) and eGFP (EX/EM: 485 nm/510 nm). Cell seeding, aspiration of medium, and addition of drugs were performed by a Hamilton StarLet automated liquid handling robot.
(§5) Inhibition of the cell growth (expressed as IC50: inhibitory concentration that reduces by 50% the growth of the cells exposed to the tested compounds) was determined from the sigmoid curve where 100 − ((ODsample − ODmedium control)/(ODcell control − ODmedium control)) × 100 values were plotted against the logarithm of compound concentrations. Curves for the data obtained on Colo205 and Colo320 cells were fitted by GraphPad Prism software (2021, Graphpad Software, version 7.00, San Diego, CA, USA) using the sigmoidal dose–response model (comparing variable and fixed slopes). From the MES-SA cell data, the IC50 values were calculated by our custom program, written by J. Sessler in C#. The p values were calculated by Student’s t-test. The IC50 values were always obtained from at least three independent experiments.

For a further experiment, the system named is MES-SA. Nature of the experiment: In vitro cytotoxicity, MES-SA cells (fluorescent protein readout). It is filed as cell-based, human. The settings on record: 144 h exposure.
Source text: as §1, §2, §3, §4, §5

The subject of another experiment is Colo320. Nature of the experiment: In vitro cytotoxicity, Colo320 cells (MTT). Particulars: for IC50: 72 h exposure; for Selectivity ratio IC50 (Colo205)/IC50 (Colo320): calculated from IC50 values in Table 4. It is filed as cell-based, human.
Source text: as §1
(§6) The colon adenocarcinoma cells were cultured in RPMI 1640 medium supplemented with 10% heat-inactivated fetal bovine serum, 2 mM L-glutamine, 1 mM sodium pyruvate, and 100 mM HEPES. The cells were incubated at 37 °C, in a 5% CO2, 95% air atmosphere.
as §3
(§7) In the case of the Colo205 and Colo320 cells, two-fold serial dilutions were prepared in 100 μL medium. The semi-adherent colon adenocarcinoma cells were treated with Trypsin-Versene (EDTA) solution. They were adjusted to a density of 1 × 10^4 cells in 100 μL of RPMI 1640 medium and were added to each well, with the exception of the medium control wells. The final volume of the wells containing compounds and cells was 200 μL. The plates containing Colo205 and Colo320 cells were incubated at 37 °C for 72 h; at the end of the incubation period, 20 μL of 3-(4,5-dimethyl-2-thiazolyl)-2,5-diphenyl-2H-tetrazolium bromide (MTT) solution (from a stock solution of 5 mg/mL) was added to each well. After incubation at 37 °C for 4 h, 100 μL of sodium dodecyl sulfate (SDS) solution (10% in 0.01 M HCI) was added to each well, and the plates were further incubated at 37 °C overnight. Cell growth was determined by measuring the optical density (OD) at 540/630 nm with a Multiskan EX plate reader (Thermo Labsystems, Cheshire, WA, USA).
as §5

For experiment [1], the system named is Enterococcus faecalis (ATCC 29212). The experiment can be described thus: Antibacterial effect, MIC determination. It is filed as cell-based. The settings on record: visual inspection, read-out: minimum inhibitory concentration (MIC). As to the method:
(§8) Escherichia coli (ATCC 25922), Klebsiella pneumoniae (ATCC 49618) were used as Gram-negative strains; and Staphylococcus aureus (ATCC 25923, methicillin-resistant (MRSA)), and Enterococcus faecalis (ATCC 29212) strains were applied as Gram-positive bacterial cultures in the experiments. MIC values of the complexes were determined in 96-well plates based on the Clinical and Laboratory Standard Institute guidelines (CLSI guidelines). The stock solutions of the compounds (dissolved in PBS buffer using 5 mM concentration) were diluted in 100 μL of Mueller Hinton Broth. Then, 10^−4 dilution of an overnight bacterial culture in 100 μL of medium was added to each well, with the exception of the medium control wells.

The subject of experiment [2] is Escherichia coli (ATCC 25922). The experiment can be described thus: Antibacterial effect, MIC determination. It is filed as cell-based. Particulars: visual inspection, read-out: minimum inhibitory concentration (MIC). As to the method: as §8
For experiment [3], the system named is Staphylococcus aureus (ATCC 25923, methicillin-resistant (MRSA)). Nature of the experiment: Antibacterial effect, MIC determination. Format: cell-based. Particulars: methicillin-resistant S. aureus (MRSA), 18 h, visual inspection, read-out: minimum inhibitory concentration (MIC). The procedure:
as §8

In experiment [4] the test system is Klebsiella pneumoniae (ATCC 49618). The experiment can be described thus: Antibacterial effect, MIC determination. Format: cell-based. Particulars: visual inspection, read-out: minimum inhibitory concentration (MIC). As to the method:
as §8

A further experiment has as its system Colo205. The experiment can be described thus: In vitro cytotoxicity, Colo205 cells (MTT). Particulars: 72 h exposure. It is filed as cell-based, human.
Source text: as §1, §6, §3, §7
Inhibition of the cell growth (expressed as IC50: inhibitory concentration that reduces by 50% the growth of the cells exposed to the tested compounds) was determined from the sigmoid curve where 100 − ((ODsample − ODmedium control)/(ODcell control − ODmedium control)) × 100 values were plotted against the logarithm of compound concentrations. Curves for the data obtained on Colo205 and Colo320 cells were fitted by GraphPad Prism software (2021, Graphpad Software, version 7.00, San Diego, CA, USA) using the sigmoidal dose–response model (comparing variable and fixed slopes). […]

As for `CC1=C(C)[C](C)([Rh]([Cl])[O]c2c(C[NH+]3CCC[C@H]3C(=O)O)cc([N+](=O)[O-])c3cccnc23)C(C)=C1C.[Cl-]` [RhCp*-HQNO2-L-Pro, [RhCp*(HQNO2-L-Pro)Cl]Cl], the IC50 was determined as 106 ± 8 µM with MES-SA/Dx5, 167 ± 38 µM in the experiment with MES-SA, 29.8 ± 0.2 µM in the experiment with Colo320 and 35 ± 1 µM in the experiment with Colo205. Besides, in the experiment on MES-SA/Dx5, the “Selectivity ratio IC50 (MES-SA)/IC50 (MES-SA/Dx5)” value is 1.58. The “Selectivity ratio IC50 (Colo205)/IC50 (Colo320)” value in the experiment with Colo320 was 1.16. For the same compound, the MIC in experiment [1] (18 h) is reported as > 100 µM; in experiment [2] (18 h) it was > 100 µM; in experiment [3] it was 50 µM; in experiment [4] (18 h) it was > 100 µM.
On to `O=C(O)[C@@H]1CCCN1Cc1cc([N+](=O)[O-])c2cccnc2c1O` [HQNO2-L-Pro, (2S)-1-((8-hydroxy-5-nitroquinolin-7-yl)methyl)pyrrolidin-1-ium-2-carboxylate], for which the IC50 with MES-SA/Dx5 (Homo sapiens, MES-SA/Dx5) turned out to be 97 ± 29 µM; in the experiment on MES-SA (Homo sapiens, MES-SA) it was 226 ± 17 µM; in the experiment with Colo320 (Homo sapiens, COLO 320) it was 32.4 ± 0.4 µM; with Colo205 (Homo sapiens, COLO 205), 34 ± 1 µM. Also, the “Selectivity ratio IC50 (MES-SA)/IC50 (MES-SA/Dx5)” value with MES-SA/Dx5 is given as 2.33. In the experiment with Colo320, the “Selectivity ratio IC50 (Colo205)/IC50 (Colo320)” value is on record as 1.06. The MIC in experiment [1] (ATCC29212, 18 h) was > 100 µM; in experiment [2] (ATCC25922, 18 h) it was > 100 µM; in experiment [3] (Staphylococcus aureus) it was > 100 µM; in experiment [4] (ATCC49618, 18 h), > 100 µM.
For the compound `Cc1ccc(C(C)C)cc1.O=C(O)[C@@H]1CCC[NH+]1Cc1cc([N+](=O)[O-])c2ccc[n+]3c2c1[O][Ru-]3[Cl].[Cl-]` [RuCym-HQNO2-L-Pro, [RuCym(HQNO2-L-Pro)Cl]Cl], the IC50 in the experiment with MES-SA/Dx5 was > 400 µM; in the experiment with MES-SA it was 166 ± 37 µM; in the experiment with Colo320, > 100 µM; in the experiment with Colo205, > 100 µM. In addition, the “Selectivity ratio IC50 (MES-SA)/IC50 (MES-SA/Dx5)” value with MES-SA/Dx5 is reported as ≤ 0.42. Also, the MIC in experiment [1] (18 h), in experiment [2] (18 h), in experiment [3] and in experiment [4] (18 h) was > 100 µM each time.
